Data on 53 compounds can be found in publication PMC6792352, “Limited Chemical Structural Diversity Found to Modulate Thyroid Hormone Receptor in the Tox21 Chemical Library” (Environmental Health Perspectives, 2019).

This data set is described as follows: in vitro. As to conditions: rat, gh3-tre-luc cells.

Where a name gives a salt, the structure may show the parent alone.

What is called CC50 is the concentration giving 50% cytotoxicity. Low values mean harm at low concentration, high ones better tolerance by the cells.

For the setting “AC50 (uM) modified / 1000”, `CN1C(=O)c2ccc([N+](=O)[O-])cc2C1=O` [N-Methyl-4-nitrophthalimide] showed a CC50 at 24 h greater than 90 µM.
The same measure, in the same setting: the same measure for `CCOC(=O)[C@@H](C)Oc1ccc(Oc2nc3ccc(Cl)cc3o2)cc1` [Fenoxaprop-P-ethyl]: greater than 90 µM; for `COCCOC[C@H](CC1(C(=O)N[C@H]2CC[C@@H](C(=O)O)CC2)CCCC1)C(=O)Oc1ccc2c(c1)CCC2` [Candoxatril]: greater than 90 µM.
On the same count and under the same terms, with `OCCOCC#CCOCCO` [1,4-Bis(2-hydroxyethoxy)-2-butyne] the figure was greater than 90 µM.
Same read-out and setting: with `C/C(=C(\CCO)SS/C(CCO)=C(/C)N(C=O)Cc1cnc(C)nc1N)N(C=O)Cc1cnc(C)nc1N` [Thiamine disulfide] the figure was greater than 50 µM; with `CCCCCCOc1ccc(N)cc1` [4-Hexyloxyaniline], greater than 90 µM; with `c1ccc2sc(SN(C3CCCCC3)C3CCCCC3)nc2c1` [N,N-Dicyclohexyl-2-benzothiazolesulfenamide], greater than 100 µM.
`CNC(C)Cc1ccccc1` (racemic) [dl-Methamphetamine hydrochloride] showed a CC50 at 24 h (AC50 (uM) modified / 1000) greater than 90 µM.
On the same count and under the same terms, with `CCCSC(=O)Cl` [S-(Propyl) chlorothioformate] the figure was greater than 90 µM.
Regarding `CC(=O)OC(OC(C)=O)c1ccc([N+](=O)[O-])o1` [5-Nitro-2-furanmethanediol diacetate], the CC50 at 24 h (AC50 (uM) modified / 1000) is 14 µM.
Take `Cc1scc2c1N(C(=O)CN1CCN(C)CC1)c1ccccc1NC2=O` [Telenzepine]: the CC50 at 24 h (AC50 (uM) modified / 1000) is greater than 50 µM.
The same measure, in the same setting: with `CC(Oc1ccc(Cl)cc1Cl)C(=O)O` (centres unmarked) [Dichlorprop] the figure was greater than 90 µM.
Take `CCOP(=S)(OCC)OP(=S)(OCC)OCC` [Sulfotepp]: the cytotoxic concentration (CC50) at 24 h (AC50 (uM) modified / 1000, Tox21_110001=Tox21_201756, viability, 1 nM T3 present, 24 h) was greater than 90 µM.
In turn, `CCc1cccc(N(C)C(N)=Nc2cccc3ccccc23)c1` [Aptiganel hydrochloride] came in with a CC50 at 24 h (AC50 (uM) modified / 1000) of 19.6 µM.
Same read-out and setting: with `COC(=O)[C@H](c1ccccc1Cl)N1CCc2sccc2C1` [Clopidogrel hydrogen sulfate] the figure was greater than 50 µM; with `CCCCCCCCCCCC(=O)OCC(O)CO` (centres unmarked) [1-Monolaurin], greater than 90 µM; with `CC(C)(C)C1CCCCC1O` (centres unmarked) [2-tert-Butylcyclohexanol], greater than 90 µM.
On the same count and under the same terms, with `C=C[Si](OCC)(OCC)OCC` [Ethenyl(triethoxy)silane] the figure was greater than 90 µM; with `O=C(O)c1ccc(C(=O)O)cc1` [Terephthalic acid], greater than 90 µM; with `COc1ccc(OC)c(Cl)c1` [2-Chloro-1,4-dimethoxybenzene], greater than 90 µM.
The same measure, in the same setting: the same measure for `CC[C@H]1CN2CCc3cc(OC)c(OC)cc3[C@@H]2C[C@@H]1C[C@H]1NCCc2cc(OC)c(OC)cc21` [Emetine dihydrochloride]: 0.065 µM; for `CC(C)Nc1cccnc1N1CCN(C(=O)c2cc3cc(NS(C)(=O)=O)ccc3[nH]2)CC1` [Delavirdine]: greater than 50 µM; for `C=C(C)C(=O)OC(C)C` [Isopropyl methacrylate]: greater than 90 µM.
`CCN(CC)c1ccc2c(-c3ccc(S(=O)(=O)O)cc3S(=O)(=O)[O-])c3ccc(=[N+](CC)CC)cc-3oc2c1` [C.I. Acid Red 52] came in with a CC50 at 24 h (AC50 (uM) modified / 1000) of 13.4 µM.
Still for that read-out and setting: with `O=S(=O)(O)CC(S)CS` (centres unmarked) [Sodium 2,3-dimercaptopropanesulfonate hydrate] the figure was greater than 50 µM; with `CCC(CO)(CO)CO` [2-Ethyl-2-(hydroxymethyl)-1,3-propanediol], greater than 100 µM.
On the same count and under the same terms, with `COc1cccc2sc(N)nc12` [2-Amino-4-methoxybenzothiazole] the figure was greater than 90 µM.
The same measure, in the same setting: the same measure for `c1ccc2sc(SN3CCOCC3)nc2c1` [N-Oxydiethylenebenzothiazole-2-sulfenamide]: greater than 50 µM; for `CN1CCN(C2=Nc3ccccc3Oc3ccc(Cl)cc32)CC1` [Loxapine succinate]: 7.25 µM; for `FC(F)(F)C(F)(F)C(F)(F)C(F)(F)C(F)(F)C(F)(F)C(F)(F)C(F)(F)Br` [1-Bromoheptadecafluorooctane]: greater than 50 µM.
As to `CCCCCCCCCCCCCCCC(=O)OC/C=C(C)/C=C/C=C(C)/C=C/C1=C(C)CCCC1(C)C` [Retinol palmitate], under “AC50 (uM) modified / 1000”, the CC50 at 24 h is greater than 50 µM.
Regarding `CCN(CC)CCc1c[nH]c2ccccc12` [N,N-Diethyltryptamine fumarate], the CC50 at 24 h (AC50 (uM) modified / 1000, Tox21_110001=Tox21_112891, viability, 1 nM T3 present, 24 h) is greater than 100 µM.
Compound `C#CCO` [Propargyl alcohol] had a CC50 at 24 h (AC50 (uM) modified / 1000, Tox21_110001=Tox21_200976, viability, 1 nM T3 present, 24 h) greater than 90 µM.
Consider `COc1c(N2C[C@@H]3CCCN[C@@H]3C2)c(F)cc2c(=O)c(C(=O)O)cn(C3CC3)c12` [Moxifloxacin hydrochloride], for which the CC50 at 24 h (AC50 (uM) modified / 1000) is greater than 50 µM.
Same read-out and setting: with `C=CC(=O)OCCOCC(CC)(COCCOC(=O)C=C)COCCOC(=O)C=C` [Trimethylolpropane ethoxylate triacrylate] the figure was 23.1 µM.
The same measure, in the same setting: the same measure for `O=C1CCCCCCCCCCCCCC1` [Cyclopentadecanone]: 60.9 µM.
For the setting “AC50 (uM) modified / 1000”, `IC(I)=C(I)I` [Tetraiodoethene] had a CC50 at 24 h of 8.53 µM.
On the same count and under the same terms, the same measure for `CCCCCCCCC(=O)Cl` [Nonanoyl chloride]: greater than 90 µM; for `Cc1nc2n(c(=O)c1CCN1CCC(c3noc4cc(F)ccc34)CC1)CCCC2` [Risperidone]: greater than 50 µM.
Still for that read-out and setting: with `CCN(CC)CC1CCCCN1CC(=O)N1c2ccccc2C(=O)Nc2cccnc21` (centres unmarked) [AF-DX 116] the figure was greater than 50 µM.
`O=C(O)c1cccc(/C=C2/C[C@@H]3[C@@H](/C=C/[C@@H](O)C4CCCCC4)[C@H](O)C[C@@H]3O2)c1` [Taprostene sodium salt]: the CC50 at 24 h (AC50 (uM) modified / 1000) is greater than 50 µM.
The same measure, in the same setting: the same measure for `C=CCNC1=C2C[C@@H](C)C[C@H](OC)[C@H](O)[C@@H](C)/C=C(\C)[C@H](OC(N)=O)[C@@H](OC)/C=C\C=C(/C)C(=O)NC(=CC1=O)C2=O` [Tanespimycin]: greater than 50 µM; for `CC(=O)[C@@]1(O)CC[C@H]2[C@@H]3C=C(Cl)C4=CC(=O)CC[C@]4(C)[C@H]3CC[C@@]21C` [Chlormadinone]: greater than 50 µM.
Same read-out and setting: with `CC(C)OC(C)C` [Isopropyl ether] the figure was greater than 100 µM; with `COC(C)(C)CC(C)=O` [4-Methoxy-4-methyl-2-pentanone], greater than 90 µM.
With `c1ccc2c(c1)CCc1ccccc1N2` [10,11-Dihydro-5H-dibenz[b,f]azepine], the CC50 at 24 h (AC50 (uM) modified / 1000) is greater than 90 µM.
As to `CO/N=C(\C(=O)N[C@@H]1C(=O)N2C(C(=O)O)=C(COC(N)=O)CS[C@H]12)c1ccco1` [Cefuroxime], under “AC50 (uM) modified / 1000”, the half-maximal cytotoxic concentration (CC50) at 24 h was greater than 90 µM.
Under “AC50 (uM) modified / 1000”, `Nc1nc[nH]n1` [Amitrole] had a CC50 at 24 h greater than 90 µM.
On the same count and under the same terms, the same measure for `Clc1nc(C(Cl)(Cl)Cl)c(Cl)c(Cl)c1Cl` [2,3,4,5-Tetrachloro-6-(trichloromethyl)pyridine]: 22.4 µM.
The same measure, in the same setting: the same measure for `CCOC(=O)CCC(=O)OCC` [Diethyl butanedioate]: greater than 90 µM.
On the same count and under the same terms, the same measure for `O=[N+]([O-])c1ccc(Oc2ccc([N+](=O)[O-])cc2)cc1` [1,1'-Oxybis(4-nitrobenzene)]: greater than 90 µM; for `CN1CCCC(n2nc(Cc3ccc(Cl)cc3)c3ccccc3c2=O)CC1` (centres unmarked) [Azelastine hydrochloride]: 12.6 µM; for `CO[C@@H]1[C@@H](O[C@@H]2O[C@H](C)[C@@H](O[C@H]3C[C@@](C)(O)[C@@H](OC(=O)CC(C)C)[C@H](C)O3)[C@H](N(C)C)[C@H]2O)[C@@H](CC=O)C[C@@H](C)[C@@H](O)/C=C/C=C/C[C@@H](C)OC(=O)C[C@H]1OC(C)=O` [Josamycin]: greater than 20 µM.
